Seven compounds from ChEMBL document CHEMBL1201862, “PubChem BioAssay data set” (2004) can be followed below.

Holding throughout (test): DTP human tumour cell line panel, 48 h
The test system of assay [1] is CAKI-1.
Assay [2] concerns EKVX.
The subject of assay [3] is HCT-116.
The subject of assay [4] is HCT-15.
In assay [5] the test system is HOP-62.
Assay [6] deals with Hs-578T.
The subject of assay [7] is LOX IMVI.
For assay [8], the system named is M19-MEL.
The subject of assay [9] is MDA-N.
Assay [10] deals with MOLT-4.
For assay [11], the system named is OVCAR-8.
Assay [12] concerns SF-268.
Assay [13] concerns SF-539.
The subject of assay [14] is SK-MEL-28.
Assay [15] concerns SK-OV-3.
Assay [16] deals with SN12C.
Assay [17] relates to SW-620.
Assay [18] has as its system U-251.
Assay [19] concerns UO-31.
Assay [20] concerns NCI-H522.

Structures are written as SMILES.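 Compound exposure: 48 hours, 5 concentrations, 96-well plates. GI50: concentration for 50% inhibition of growth.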 Activity calls are given as the source filed them. No stated cut-off is given here; in the data, active = GI50 up to about 1.1 µM and inactive = higher.

Broadly, the GI50 is the concentration at which growth is held to half of that of the control. As to `CN(Cc1cnc2nc(N)nc(N)c2n1)c1ccc(C(=O)NC(CCC(=O)O)C(=O)O)c2ccccc12` (stereo not drawn), the GI50 in [1] was 0.00489 µM (active); in assay [2], < 0.1 µM (active); in [3], 0.000647 µM (active); in assay [4] it was 0.00186 µM; in assay [5], < 0.0185 µM (active); in assay [6] it was 0.0982 µM (active). Moreover, the GI50 in assay [7] was 0.000508 µM (active); in assay [8] it was 0.01 µM (active); in assay [9], 0.000834 µM (active); in [10] it was 0.00545 µM (active); in assay [11], 0.00378 µM (active); in assay [12], 0.00536 µM (active). Also, the GI50 in assay [13] is 0.00577 µM (active); in [14], 0.0805 µM (active); in assay [15], 0.0456 µM (active); in assay [16], 0.00697 µM (active); in assay [17], 0.00137 µM (active); in assay [18], 0.0114 µM (active). In assay [19], the GI50 is 0.00638 µM (active).
Consider `N#CC1CC(c2ccccc2)Nc2cc(Cl)ccc2N1` (stereo not drawn), for which the GI50 in assay [1] is 34.8 µM (inactive); in [2] it was > 79.6 µM (inactive); in [3] it was 19.3 µM (inactive); in [4], 13.8 µM; in [5], 55.7 µM (inactive); in assay [7], 33.1 µM (inactive). Besides, the GI50 was 44.8 µM (inactive) in [8]; 10.9 µM (inactive) in assay [10]; 3.68 µM (inactive) in assay [20]; 33 µM (inactive) in [11]; 45.2 µM (inactive) in [12]; 38.3 µM (inactive) in assay [13]. Moreover, the GI50 in [14] is > 93.8 µM (inactive); in [15] it was > 100 µM (inactive); in assay [16], 63.1 µM (inactive); in assay [17], 4.5 µM (inactive); in assay [18], 30.7 µM (inactive); in assay [19], > 100 µM (inactive).
Take `Cc1c2cc[n+](CCN3CCCCC3)cc2c(C)c2c1[nH]c1ccc(O)cc12`: the GI50 in [1] was 5.48 µM (inactive); in assay [2], 3.92 µM (inactive); in assay [3], 2.58 µM (inactive); in [4] it was 12.5 µM; in assay [5] it was 2.32 µM (inactive); in [6] it was 2.84 µM (inactive). Also, the GI50 is 4.41 µM (inactive) in assay [7]; 0.982 µM (active) in [8]; 12.1 µM (inactive) in assay [9]; 1.99 µM (inactive) in assay [20]; 2.04 µM (inactive) in assay [11]; 1.4 µM (inactive) in assay [12]. The GI50 was 3.45 µM (inactive) in assay [13]; 6.1 µM (inactive) in [14]; 3.02 µM (inactive) in assay [15]; 0.401 µM (active) in [16]; 3.19 µM (inactive) in assay [17]; 0.8 µM (active) in assay [18]. Moreover, in [19], the GI50 was 17.1 µM (inactive).
With `CCOP(=O)(OCC)OC(C#N)c1ccc(-c2ccccc2)cc1` (stereo not drawn), the GI50 in assay [1] was 22.4 µM (inactive); in [2], 49 µM (inactive); in assay [3] it was 15.2 µM (inactive); in [4], 18 µM; in [5] it was 34.5 µM (inactive); in [7] it was 13.7 µM (inactive). Further, the GI50 was 21.9 µM (inactive) in assay [8]; 14.2 µM (inactive) in assay [10]; 14.9 µM (inactive) in [20]; 19.5 µM (inactive) in assay [11]; 18.2 µM (inactive) in assay [12]; 20.8 µM (inactive) in assay [13]. Further, the GI50 in assay [14] was 31.4 µM (inactive); in [15], 28.4 µM (inactive); in assay [16] it was 19 µM (inactive); in assay [17] it was 13.7 µM (inactive); in [18], 15.2 µM (inactive); in assay [19], 47.3 µM (inactive).
On to `C/C(=N/NC(=O)C[N+](C)(C)C)C(CN(C)C)C(=O)Nc1ccccc1` (stereo not drawn), for which the GI50 in assay [1] is > 100 µM (inactive); in assay [2], > 100 µM (inactive); in assay [3] it was > 100 µM (inactive); in assay [4] it was over 100 µM; in assay [5], > 100 µM (inactive); in [7], > 100 µM (inactive). For the same compound, the GI50 in assay [8], in assay [10], in assay [20], in assay [11], in assay [12] and in [13] was > 100 µM (inactive) throughout. The GI50 in [14], in assay [15], in assay [16], in [17], in assay [18] and in [19] was > 100 µM (inactive) throughout.
As to `CC1(C)COC(c2cccnc2/C=N/O)=N1`, the GI50 in assay [1] was > 100 µM (inactive); in assay [2], > 100 µM (inactive); in [3] it was > 100 µM (inactive); in assay [4], over 100 µM; in [5] it was > 100 µM (inactive); in assay [7] it was > 100 µM (inactive). The GI50 in [8], in assay [10], in assay [20], in [11], in assay [12] and in assay [13] was > 100 µM (inactive) throughout. Also, the GI50 is > 100 µM (inactive) in assay [14]; > 100 µM (inactive) in [15]; > 100 µM (inactive) in assay [16]; 67.8 µM (inactive) in [17]; > 100 µM (inactive) in [18]; > 100 µM (inactive) in assay [19].
With `O=C(O)[C@@H]1OCCOCCO[C@@H](C(=O)O)[C@H](C(=O)O)OCCOCCO[C@H]1C(=O)O`, the GI50 in [1] was > 100 µM (inactive); in [2], > 100 µM (inactive); in assay [3], > 67.8 µM (inactive); in assay [4] it was over 55.8 µM; in assay [5], > 100 µM (inactive); in assay [7] it was > 71.3 µM (inactive). For the same compound, the GI50 in assay [8] was > 100 µM (inactive); in assay [10], > 64.3 µM (inactive); in assay [20] it was > 100 µM (inactive); in assay [11] it was > 100 µM (inactive); in assay [12] it was > 100 µM (inactive); in [13], > 100 µM (inactive). The GI50 in assay [14] was > 100 µM (inactive); in assay [15], > 100 µM (inactive); in assay [16] it was > 100 µM (inactive); in assay [17] it was > 50.1 µM (inactive); in assay [18], > 42.1 µM (inactive); in assay [19], > 100 µM (inactive).
